Numbers after ± are expanded uncertainties.
Assay: molar heat capacity at constant pressure
Details: 101.33 kPa, Crystal

O=C(O)c1cccc(C(=O)O)n1 [pyridine-2,6-dicarboxylic acid]
molar heat capacity at constant pressure (84.05 K): 56.42 ± 15 J/K/mol | molar heat capacity at constant pressure (86.4 K): 56.44 ± 15 J/K/mol | molar heat capacity at constant pressure (88.71 K): 56.5 ± 15 J/K/mol | molar heat capacity at constant pressure (90.97 K): 56.59 ± 26 J/K/mol | molar heat capacity at constant pressure (93.19 K): 56.71 ± 26 J/K/mol | molar heat capacity at constant pressure (95.37 K): 56.85 ± 26 J/K/mol | molar heat capacity at constant pressure (97.51 K): 57.03 ± 26 J/K/mol | molar heat capacity at constant pressure (99.63 K): 57.23 ± 26 J/K/mol | molar heat capacity at constant pressure (101.72 K): 57.46 ± 26 J/K/mol | molar heat capacity at constant pressure (103.77 K): 57.71 ± 26 J/K/mol | molar heat capacity at constant pressure (105.81 K): 57.98 ± 26 J/K/mol | molar heat capacity at constant pressure (107.81 K): 58.27 ± 26 J/K/mol | molar heat capacity at constant pressure (109.8 K): 58.59 ± 26 J/K/mol | molar heat capacity at constant pressure (111.76 K): 58.92 ± 26 J/K/mol | molar heat capacity at constant pressure (113.7 K): 59.27 ± 26 J/K/mol | molar heat capacity at constant pressure (115.63 K): 59.65 ± 26 J/K/mol | molar heat capacity at constant pressure (117.53 K): 60.03 ± 26 J/K/mol | molar heat capacity at constant pressure (119.42 K): 60.44 ± 26 J/K/mol | molar heat capacity at constant pressure (121.29 K): 60.86 ± 26 J/K/mol | molar heat capacity at constant pressure (123.15 K): 61.3 ± 26 J/K/mol | molar heat capacity at constant pressure (124.99 K): 61.76 ± 26 J/K/mol | molar heat capacity at constant pressure (126.82 K): 62.23 ± 26 J/K/mol | molar heat capacity at constant pressure (128.63 K): 62.72 ± 26 J/K/mol | molar heat capacity at constant pressure (130.43 K): 63.22 ± 26 J/K/mol | molar heat capacity at constant pressure (132.22 K): 63.73 ± 26 J/K/mol | molar heat capacity at constant pressure (133.99 K): 64.25 ± 26 J/K/mol | molar heat capacity at constant pressure (135.76 K): 64.8 ± 26 J/K/mol | molar heat capacity at constant pressure (137.51 K): 65.35 ± 27 J/K/mol | molar heat capacity at constant pressure (139.25 K): 65.91 ± 27 J/K/mol | molar heat capacity at constant pressure (140.98 K): 66.49 ± 27 J/K/mol | molar heat capacity at constant pressure (142.69 K): 67.08 ± 27 J/K/mol | molar heat capacity at constant pressure (144.4 K): 67.68 ± 27 J/K/mol | molar heat capacity at constant pressure (146.1 K): 68.29 ± 27 J/K/mol | molar heat capacity at constant pressure (147.79 K): 68.91 ± 27 J/K/mol | molar heat capacity at constant pressure (149.46 K): 69.55 ± 27 J/K/mol | molar heat capacity at constant pressure (151.13 K): 70.19 ± 27 J/K/mol | molar heat capacity at constant pressure (152.79 K): 70.84 ± 27 J/K/mol | molar heat capacity at constant pressure (154.44 K): 71.5 ± 27 J/K/mol | molar heat capacity at constant pressure (156.08 K): 72.18 ± 27 J/K/mol | molar heat capacity at constant pressure (157.72 K): 72.86 ± 27 J/K/mol | molar heat capacity at constant pressure (159.35 K): 73.55 ± 27 J/K/mol | molar heat capacity at constant pressure (160.97 K): 74.25 ± 27 J/K/mol | molar heat capacity at constant pressure (162.58 K): 74.96 ± 27 J/K/mol | molar heat capacity at constant pressure (164.18 K): 75.68 ± 28 J/K/mol | molar heat capacity at constant pressure (165.77 K): 76.4 ± 28 J/K/mol | molar heat capacity at constant pressure (167.35 K): 77.13 ± 28 J/K/mol | molar heat capacity at constant pressure (168.92 K): 77.86 ± 28 J/K/mol | molar heat capacity at constant pressure (170.49 K): 78.61 ± 28 J/K/mol | molar heat capacity at constant pressure (172.04 K): 79.36 ± 28 J/K/mol | molar heat capacity at constant pressure (173.59 K): 80.11 ± 28 J/K/mol | molar heat capacity at constant pressure (175.13 K): 80.88 ± 28 J/K/mol | molar heat capacity at constant pressure (176.66 K): 81.65 ± 28 J/K/mol | molar heat capacity at constant pressure (178.19 K): 82.42 ± 28 J/K/mol | molar heat capacity at constant pressure (179.71 K): 83.2 ± 28 J/K/mol | molar heat capacity at constant pressure (181.22 K): 83.99 ± 28 J/K/mol | molar heat capacity at constant pressure (182.72 K): 84.78 ± 28 J/K/mol | molar heat capacity at constant pressure (184.23 K): 85.59 ± 29 J/K/mol | molar heat capacity at constant pressure (185.73 K): 86.39 ± 29 J/K/mol | molar heat capacity at constant pressure (187.22 K): 87.21 ± 29 J/K/mol | molar heat capacity at constant pressure (188.71 K): 88.03 ± 29 J/K/mol | molar heat capacity at constant pressure (190.19 K): 88.85 ± 29 J/K/mol | molar heat capacity at constant pressure (191.66 K): 89.68 ± 29 J/K/mol | molar heat capacity at constant pressure (193.13 K): 90.52 ± 29 J/K/mol | molar heat capacity at constant pressure (194.59 K): 91.35 ± 29 J/K/mol | molar heat capacity at constant pressure (196.06 K): 92.2 ± 29 J/K/mol | molar heat capacity at constant pressure (197.5 K): 93.04 ± 29 J/K/mol | molar heat capacity at constant pressure (200.08 K): 94.57 ± 29 J/K/mol | molar heat capacity at constant pressure (204.09 K): 96.99 ± 30 J/K/mol | molar heat capacity at constant pressure (207.23 K): 98.92 ± 30 J/K/mol | molar heat capacity at constant pressure (209.37 K): 100.26 ± 30 J/K/mol | molar heat capacity at constant pressure (211.49 K): 101.59 ± 30 J/K/mol | molar heat capacity at constant pressure (213.62 K): 102.95 ± 30 J/K/mol | molar heat capacity at constant pressure (217.8 K): 105.66 ± 31 J/K/mol | molar heat capacity at constant pressure (219.85 K): 107.01 ± 31 J/K/mol | molar heat capacity at constant pressure (221.9 K): 108.37 ± 31 J/K/mol | molar heat capacity at constant pressure (223.94 K): 109.74 ± 31 J/K/mol | molar heat capacity at constant pressure (225.95 K): 111.1 ± 31 J/K/mol | molar heat capacity at constant pressure (227.91 K): 112.43 ± 31 J/K/mol | molar heat capacity at constant pressure (229.9 K): 113.8 ± 31 J/K/mol | molar heat capacity at constant pressure (231.78 K): 115.1 ± 32 J/K/mol | molar heat capacity at constant pressure (233.73 K): 116.46 ± 32 J/K/mol | molar heat capacity at constant pressure (235.64 K): 117.81 ± 32 J/K/mol | molar heat capacity at constant pressure (237.61 K): 119.2 ± 32 J/K/mol | molar heat capacity at constant pressure (239.52 K): 120.56 ± 32 J/K/mol | molar heat capacity at constant pressure (241.4 K): 121.91 ± 32 J/K/mol | molar heat capacity at constant pressure (243.27 K): 123.26 ± 32 J/K/mol | molar heat capacity at constant pressure (245.17 K): 124.63 ± 32 J/K/mol | molar heat capacity at constant pressure (247.09 K): 126.04 ± 33 J/K/mol | molar heat capacity at constant pressure (248.98 K): 127.43 ± 33 J/K/mol | molar heat capacity at constant pressure (250.89 K): 128.84 ± 33 J/K/mol | molar heat capacity at constant pressure (252.77 K): 130.24 ± 33 J/K/mol | molar heat capacity at constant pressure (254.65 K): 131.65 ± 33 J/K/mol | molar heat capacity at constant pressure (256.51 K): 133.04 ± 33 J/K/mol | molar heat capacity at constant pressure (258.38 K): 134.45 ± 33 J/K/mol | molar heat capacity at constant pressure (260.23 K): 135.86 ± 34 J/K/mol | molar heat capacity at constant pressure (262.08 K): 137.27 ± 34 J/K/mol | molar heat capacity at constant pressure (263.92 K): 138.68 ± 34 J/K/mol | molar heat capacity at constant pressure (265.74 K): 140.08 ± 34 J/K/mol | molar heat capacity at constant pressure (267.58 K): 141.5 ± 34 J/K/mol | molar heat capacity at constant pressure (269.4 K): 142.91 ± 34 J/K/mol | molar heat capacity at constant pressure (271.2 K): 144.31 ± 34 J/K/mol | molar heat capacity at constant pressure (273 K): 145.72 ± 35 J/K/mol | molar heat capacity at constant pressure (274.79 K): 147.12 ± 35 J/K/mol | molar heat capacity at constant pressure (276.55 K): 148.51 ± 35 J/K/mol | molar heat capacity at constant pressure (278.32 K): 149.91 ± 35 J/K/mol | molar heat capacity at constant pressure (280.09 K): 151.31 ± 35 J/K/mol | molar heat capacity at constant pressure (281.85 K): 152.71 ± 35 J/K/mol | molar heat capacity at constant pressure (283.59 K): 154.09 ± 35 J/K/mol | molar heat capacity at constant pressure (285.32 K): 155.48 ± 36 J/K/mol | molar heat capacity at constant pressure (287.04 K): 156.85 ± 36 J/K/mol | molar heat capacity at constant pressure (288.74 K): 158.22 ± 36 J/K/mol | molar heat capacity at constant pressure (290.44 K): 159.59 ± 36 J/K/mol | molar heat capacity at constant pressure (292.1 K): 160.93 ± 36 J/K/mol | molar heat capacity at constant pressure (293.75 K): 162.27 ± 36 J/K/mol | molar heat capacity at constant pressure (295.39 K): 163.6 ± 36 J/K/mol | molar heat capacity at constant pressure (297.06 K): 164.95 ± 36 J/K/mol | molar heat capacity at constant pressure (298.72 K): 166.31 ± 37 J/K/mol | molar heat capacity at constant pressure (300.37 K): 167.65 ± 37 J/K/mol | molar heat capacity at constant pressure (302.01 K): 168.99 ± 37 J/K/mol | molar heat capacity at constant pressure (303.64 K): 170.32 ± 37 J/K/mol | molar heat capacity at constant pressure (305.27 K): 171.65 ± 37 J/K/mol | molar heat capacity at constant pressure (306.88 K): 172.98 ± 37 J/K/mol | molar heat capacity at constant pressure (310.09 K): 175.62 ± 38 J/K/mol | molar heat capacity at constant pressure (311.68 K): 176.93 ± 38 J/K/mol | molar heat capacity at constant pressure (313.25 K): 178.21 ± 38 J/K/mol | molar heat capacity at constant pressure (314.76 K): 179.47 ± 38 J/K/mol | molar heat capacity at constant pressure (316.65 K): 181.03 ± 38 J/K/mol | molar heat capacity at constant pressure (319.26 K): 183.18 ± 38 J/K/mol | molar heat capacity at constant pressure (322.04 K): 185.48 ± 39 J/K/mol | molar heat capacity at constant pressure (324.78 K): 187.75 ± 39 J/K/mol | molar heat capacity at constant pressure (327.48 K): 189.98 ± 39 J/K/mol | molar heat capacity at constant pressure (330.16 K): 192.2 ± 39 J/K/mol | molar heat capacity at constant pressure (332.81 K): 194.4 ± 39 J/K/mol | molar heat capacity at constant pressure (335.45 K): 196.59 ± 40 J/K/mol | molar heat capacity at constant pressure (338.09 K): 198.77 ± 40 J/K/mol | molar heat capacity at constant pressure (340.74 K): 200.97 ± 40 J/K/mol | molar heat capacity at constant pressure (343.44 K): 203.2 ± 40 J/K/mol | molar heat capacity at constant pressure (346.14 K): 205.43 ± 41 J/K/mol | molar heat capacity at constant pressure (348.74 K): 207.58 ± 41 J/K/mol | molar heat capacity at constant pressure (351.31 K): 209.7 ± 41 J/K/mol | molar heat capacity at constant pressure (353.85 K): 211.78 ± 41 J/K/mol | molar heat capacity at constant pressure (356.38 K): 213.86 ± 41 J/K/mol | molar heat capacity at constant pressure (358.86 K): 215.9 ± 42 J/K/mol | molar heat capacity at constant pressure (361.34 K): 217.92 ± 42 J/K/mol | molar heat capacity at constant pressure (363.79 K): 219.91 ± 42 J/K/mol | molar heat capacity at constant pressure (366.21 K): 221.88 ± 42 J/K/mol | molar heat capacity at constant pressure (368.6 K): 223.82 ± 42 J/K/mol | molar heat capacity at constant pressure (370.97 K): 225.73 ± 43 J/K/mol | molar heat capacity at constant pressure (375.64 K): 229.5 ± 43 J/K/mol | molar heat capacity at constant pressure (378 K): 231.38 ± 43 J/K/mol

— the NIST ThermoML archive (doi:10.1016/j.jct.2006.03.007)
